Key:
Assay in all cases: KINOMEscan competition binding
Conditions in all cases: compound 10.0 µM
AURKA (human) = AURKA (human) (UniProt O14965)
MAPKAPK5 (human) = MAPKAPK5 (human) (UniProt Q8IW41)
ADCK4 (human) = ADCK4 (human) (UniProt Q96D53)
AURKC (human) = AURKC (human) (UniProt Q9UQB9)
[1] = molecular target: JAK1 JH2 pseudokinase (human) (UniProt P23458)
STK17B (human) = STK17B (human) (UniProt O94768)
CDK7 (human) = CDK7 (human) (UniProt P50613)
EIF2AK1 (human) = EIF2AK1 (human) (UniProt Q9BQI3)
STK39 (human) = STK39 (human) (UniProt Q9UEW8)
MAP4K2 (human) = MAP4K2 (human) (UniProt Q12851)
Chain of MAP4K2 (human) (Q12851 whole entry, looked up): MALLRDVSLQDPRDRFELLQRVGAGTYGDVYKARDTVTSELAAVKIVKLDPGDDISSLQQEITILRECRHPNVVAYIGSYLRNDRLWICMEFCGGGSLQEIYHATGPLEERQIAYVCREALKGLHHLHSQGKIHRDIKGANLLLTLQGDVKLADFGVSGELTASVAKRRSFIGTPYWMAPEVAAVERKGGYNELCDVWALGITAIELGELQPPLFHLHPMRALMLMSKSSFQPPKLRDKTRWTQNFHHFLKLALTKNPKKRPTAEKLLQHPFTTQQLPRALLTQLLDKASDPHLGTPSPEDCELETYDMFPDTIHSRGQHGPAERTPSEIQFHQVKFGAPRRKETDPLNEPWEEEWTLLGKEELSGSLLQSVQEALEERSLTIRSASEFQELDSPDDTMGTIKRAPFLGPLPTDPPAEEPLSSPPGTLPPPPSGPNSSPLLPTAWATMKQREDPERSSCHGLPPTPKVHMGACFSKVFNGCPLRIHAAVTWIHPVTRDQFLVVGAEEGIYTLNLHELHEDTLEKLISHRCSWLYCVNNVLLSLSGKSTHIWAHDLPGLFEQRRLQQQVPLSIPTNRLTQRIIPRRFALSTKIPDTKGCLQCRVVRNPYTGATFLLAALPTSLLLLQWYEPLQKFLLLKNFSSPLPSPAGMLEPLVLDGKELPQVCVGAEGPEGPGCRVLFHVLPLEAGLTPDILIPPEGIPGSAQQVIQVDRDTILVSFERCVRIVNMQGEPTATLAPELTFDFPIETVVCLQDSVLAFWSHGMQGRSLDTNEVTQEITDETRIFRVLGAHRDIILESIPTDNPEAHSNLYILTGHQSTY

RAF1 (human) = RAF1 (human) (UniProt P04049)
OXSR1 (human) = OXSR1 (human) (UniProt O95747)
SRC (human) = SRC (human) (UniProt P12931)
Chain of SRC (human) (P12931 whole entry, looked up): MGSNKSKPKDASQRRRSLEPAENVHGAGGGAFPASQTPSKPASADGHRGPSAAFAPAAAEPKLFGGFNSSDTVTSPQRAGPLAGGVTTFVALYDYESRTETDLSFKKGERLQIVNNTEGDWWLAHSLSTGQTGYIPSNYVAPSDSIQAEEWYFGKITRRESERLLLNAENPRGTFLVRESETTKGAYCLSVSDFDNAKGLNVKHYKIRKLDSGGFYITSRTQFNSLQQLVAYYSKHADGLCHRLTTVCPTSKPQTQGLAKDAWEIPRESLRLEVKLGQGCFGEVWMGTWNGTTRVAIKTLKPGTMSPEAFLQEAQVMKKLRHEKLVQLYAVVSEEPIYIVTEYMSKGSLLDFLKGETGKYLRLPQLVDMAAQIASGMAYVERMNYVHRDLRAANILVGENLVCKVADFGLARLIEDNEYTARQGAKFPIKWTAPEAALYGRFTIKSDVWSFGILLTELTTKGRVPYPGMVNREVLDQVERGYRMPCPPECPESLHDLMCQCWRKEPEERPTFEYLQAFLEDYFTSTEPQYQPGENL

CSNK2A2 (human) = CSNK2A2 (human) (UniProt P19784)
CDKL5 (human) = CDKL5 (human) (UniProt O76039)
MAP4K1 (human) = MAP4K1 (human) (UniProt Q92918)
MYLK (human) = MYLK (human) (UniProt Q15746)
NTRK2 (human) = NTRK2 (human) (UniProt Q16620)
Chain of NTRK2 (human) (Q16620 whole entry, looked up): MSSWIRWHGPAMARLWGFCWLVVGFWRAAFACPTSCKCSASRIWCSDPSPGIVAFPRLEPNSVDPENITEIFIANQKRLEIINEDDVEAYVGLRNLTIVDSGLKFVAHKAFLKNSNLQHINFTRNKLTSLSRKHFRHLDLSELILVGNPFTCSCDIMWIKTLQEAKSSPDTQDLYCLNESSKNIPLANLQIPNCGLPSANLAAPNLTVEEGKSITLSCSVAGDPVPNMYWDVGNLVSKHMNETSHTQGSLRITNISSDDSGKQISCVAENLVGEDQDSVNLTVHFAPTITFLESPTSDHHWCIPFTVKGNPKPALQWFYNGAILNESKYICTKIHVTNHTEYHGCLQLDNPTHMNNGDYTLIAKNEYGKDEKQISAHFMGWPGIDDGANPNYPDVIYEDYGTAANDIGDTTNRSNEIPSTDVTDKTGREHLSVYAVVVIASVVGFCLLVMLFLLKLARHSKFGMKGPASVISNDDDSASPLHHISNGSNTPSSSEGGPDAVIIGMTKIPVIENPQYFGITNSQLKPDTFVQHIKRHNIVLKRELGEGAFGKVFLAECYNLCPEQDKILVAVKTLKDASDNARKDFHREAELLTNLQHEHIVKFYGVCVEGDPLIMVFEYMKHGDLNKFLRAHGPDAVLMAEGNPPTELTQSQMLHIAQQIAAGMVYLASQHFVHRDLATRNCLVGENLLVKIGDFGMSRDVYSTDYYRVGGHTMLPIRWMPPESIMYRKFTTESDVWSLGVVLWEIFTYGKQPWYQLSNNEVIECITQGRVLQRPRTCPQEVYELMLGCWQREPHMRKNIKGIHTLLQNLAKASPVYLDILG

ACVR2B (human) = ACVR2B (human) (UniProt Q13705)
ACVRL1 (human) = ACVRL1 (human) (UniProt P37023)
Chain of ACVRL1 (human) (P37023 whole entry, looked up): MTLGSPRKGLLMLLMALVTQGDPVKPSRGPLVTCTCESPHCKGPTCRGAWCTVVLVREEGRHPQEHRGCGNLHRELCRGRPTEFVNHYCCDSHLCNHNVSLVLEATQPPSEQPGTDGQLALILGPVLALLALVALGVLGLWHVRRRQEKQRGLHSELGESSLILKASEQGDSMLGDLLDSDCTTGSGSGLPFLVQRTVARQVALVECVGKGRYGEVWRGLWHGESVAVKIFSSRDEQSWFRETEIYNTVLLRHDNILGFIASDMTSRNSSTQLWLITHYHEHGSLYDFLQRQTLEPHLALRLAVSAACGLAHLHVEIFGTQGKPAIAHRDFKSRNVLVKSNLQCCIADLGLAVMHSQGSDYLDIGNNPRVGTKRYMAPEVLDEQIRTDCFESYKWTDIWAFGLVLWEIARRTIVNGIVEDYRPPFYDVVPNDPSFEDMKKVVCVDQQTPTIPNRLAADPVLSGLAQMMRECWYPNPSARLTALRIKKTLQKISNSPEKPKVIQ

ERBB3 (human) = ERBB3 (human) (UniProt P21860)
NEK4 (human) = NEK4 (human) (UniProt P51957)
Chain of NEK4 (human) (P51957 whole entry, looked up): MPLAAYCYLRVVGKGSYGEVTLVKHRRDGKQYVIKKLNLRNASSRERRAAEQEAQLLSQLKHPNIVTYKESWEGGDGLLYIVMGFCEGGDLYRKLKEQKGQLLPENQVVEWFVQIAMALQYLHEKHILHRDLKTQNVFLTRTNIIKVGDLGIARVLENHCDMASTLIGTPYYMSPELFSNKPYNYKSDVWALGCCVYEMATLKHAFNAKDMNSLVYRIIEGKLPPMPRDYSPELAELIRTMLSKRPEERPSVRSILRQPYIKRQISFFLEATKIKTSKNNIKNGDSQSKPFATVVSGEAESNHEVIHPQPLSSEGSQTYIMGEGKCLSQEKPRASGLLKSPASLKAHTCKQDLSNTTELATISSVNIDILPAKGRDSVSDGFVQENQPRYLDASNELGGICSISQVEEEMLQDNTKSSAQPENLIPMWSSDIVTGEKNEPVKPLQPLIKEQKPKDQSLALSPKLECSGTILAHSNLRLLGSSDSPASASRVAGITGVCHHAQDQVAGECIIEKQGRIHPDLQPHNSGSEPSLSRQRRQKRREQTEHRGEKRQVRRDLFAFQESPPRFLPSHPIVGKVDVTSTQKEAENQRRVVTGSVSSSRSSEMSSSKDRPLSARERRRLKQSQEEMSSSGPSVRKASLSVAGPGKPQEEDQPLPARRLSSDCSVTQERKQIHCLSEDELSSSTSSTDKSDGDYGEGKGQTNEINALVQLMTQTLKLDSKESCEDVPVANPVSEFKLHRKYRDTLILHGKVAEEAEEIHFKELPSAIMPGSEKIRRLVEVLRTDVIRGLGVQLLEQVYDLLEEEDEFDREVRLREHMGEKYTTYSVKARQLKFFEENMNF

EPHA5 (human) = EPHA5 (human) (UniProt P54756)
CSNK1D (human) = CSNK1D (human) (UniProt P48730)
Chain of CSNK1D (human) (P48730 whole entry, looked up): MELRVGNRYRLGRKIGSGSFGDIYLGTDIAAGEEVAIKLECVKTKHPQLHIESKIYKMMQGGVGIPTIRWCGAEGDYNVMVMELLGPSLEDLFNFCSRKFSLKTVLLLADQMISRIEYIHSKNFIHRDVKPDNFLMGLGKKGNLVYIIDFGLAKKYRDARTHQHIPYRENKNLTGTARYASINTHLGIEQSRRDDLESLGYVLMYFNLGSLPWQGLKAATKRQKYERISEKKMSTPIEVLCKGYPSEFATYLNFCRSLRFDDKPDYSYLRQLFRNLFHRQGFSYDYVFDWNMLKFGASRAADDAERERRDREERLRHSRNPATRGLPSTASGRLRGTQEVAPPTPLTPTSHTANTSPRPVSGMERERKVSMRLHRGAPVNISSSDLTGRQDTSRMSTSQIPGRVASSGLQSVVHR

DCLK3 (human) = DCLK3 (human) (UniProt Q9C098)
CLK4 (human) = CLK4 (human) (UniProt Q9HAZ1)
PI4KB (human) = PI4KB (human) (UniProt Q9UBF8)
[2] = test system: EGFR (human), P00533 [T790M]
BRAF (human) = BRAF (human) (UniProt P15056)
CSNK1G3 (human) = CSNK1G3 (human) (UniProt Q9Y6M4)
[3] = test system: RET (human), P07949 [V804M]
Chain of RET (human), P07949 [V804M] (P07949 whole entry V804M, looked up): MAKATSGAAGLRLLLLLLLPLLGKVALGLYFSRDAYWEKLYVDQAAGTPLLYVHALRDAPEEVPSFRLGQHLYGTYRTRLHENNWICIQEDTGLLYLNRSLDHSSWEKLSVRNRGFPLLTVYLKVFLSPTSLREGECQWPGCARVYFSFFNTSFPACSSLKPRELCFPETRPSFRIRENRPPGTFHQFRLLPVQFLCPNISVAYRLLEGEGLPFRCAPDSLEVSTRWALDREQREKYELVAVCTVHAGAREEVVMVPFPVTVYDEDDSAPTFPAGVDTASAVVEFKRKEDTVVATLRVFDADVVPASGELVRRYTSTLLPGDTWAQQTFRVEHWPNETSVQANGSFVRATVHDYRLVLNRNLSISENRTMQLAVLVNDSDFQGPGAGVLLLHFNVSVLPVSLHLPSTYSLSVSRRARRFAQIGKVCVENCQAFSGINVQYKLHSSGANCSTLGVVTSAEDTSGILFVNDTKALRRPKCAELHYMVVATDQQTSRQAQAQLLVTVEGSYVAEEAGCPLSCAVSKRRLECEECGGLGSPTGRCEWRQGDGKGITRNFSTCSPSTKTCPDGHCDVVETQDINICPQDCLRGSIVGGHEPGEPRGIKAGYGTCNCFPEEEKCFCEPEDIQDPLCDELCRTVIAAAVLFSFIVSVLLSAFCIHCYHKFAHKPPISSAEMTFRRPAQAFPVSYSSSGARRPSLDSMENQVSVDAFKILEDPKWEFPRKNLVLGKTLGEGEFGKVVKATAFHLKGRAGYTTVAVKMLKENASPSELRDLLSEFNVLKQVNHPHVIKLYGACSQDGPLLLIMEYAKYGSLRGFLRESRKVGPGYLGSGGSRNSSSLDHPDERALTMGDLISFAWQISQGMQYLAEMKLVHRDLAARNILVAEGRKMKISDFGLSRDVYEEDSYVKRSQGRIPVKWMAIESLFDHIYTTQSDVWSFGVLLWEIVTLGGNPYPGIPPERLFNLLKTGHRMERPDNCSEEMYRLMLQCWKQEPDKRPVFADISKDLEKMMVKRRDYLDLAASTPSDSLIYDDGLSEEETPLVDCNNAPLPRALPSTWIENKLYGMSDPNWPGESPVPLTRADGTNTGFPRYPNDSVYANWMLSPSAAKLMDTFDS

CDK4 CCND1 (human) = CDK4 CCND1 (human) (UniProt P11802+P24385)
PRKX (human) = PRKX (human) (UniProt P51817)

## COc1ccc(N(C(=O)Oc2c(C)cccc2C)c2ccnc(Nc3ccc(N4CCN(C)CC4)cc3)n2)c(OC)c1
AURKA (human)
  kinase still bound, per cent of control: 6.8%
MAPKAPK5 (human)
  kinase still bound, per cent of control: 100%
ADCK4 (human)
  kinase still bound, per cent of control: 20%
AURKC (human)
  kinase still bound, per cent of control: 9.9%
[1]
  kinase still bound, per cent of control: 84%
STK17B (human)
  kinase still bound, per cent of control: 100%
CDK7 (human)
  kinase still bound, per cent of control: 100%
EIF2AK1 (human)
  kinase still bound, per cent of control: 100%
STK39 (human)
  kinase still bound, per cent of control: 100%
MAP4K2 (human)
  kinase still bound, per cent of control: 1.6%
RAF1 (human)
  kinase still bound, per cent of control: 95%
OXSR1 (human)
  kinase still bound, per cent of control: 93%
SRC (human)
  kinase still bound, per cent of control: 0.05%
CSNK2A2 (human)
  kinase still bound, per cent of control: 95%
CDKL5 (human)
  kinase still bound, per cent of control: 100%
MAP4K1 (human)
  kinase still bound, per cent of control: 0.25%
MYLK (human)
  kinase still bound, per cent of control: 100%
NTRK2 (human)
  kinase still bound, per cent of control: 82%
ACVR2B (human)
  kinase still bound, per cent of control: 1.8%
ACVRL1 (human)
  kinase still bound, per cent of control: 2.7%
ERBB3 (human)
  kinase still bound, per cent of control: 0%
NEK4 (human)
  kinase still bound, per cent of control: 74%
EPHA5 (human)
  kinase still bound, per cent of control: 0.15%
CSNK1D (human)
  kinase still bound, per cent of control: 82%
DCLK3 (human)
  kinase still bound, per cent of control: 100%
CLK4 (human)
  kinase still bound, per cent of control: 100%
PI4KB (human)
  kinase still bound, per cent of control: 100%
[2]
  kinase still bound, per cent of control: 2.2%
BRAF (human)
  kinase still bound, per cent of control: 88%
CSNK1G3 (human)
  kinase still bound, per cent of control: 87%
[3]
  kinase still bound, per cent of control: 66%
CDK4 CCND1 (human)
  kinase still bound, per cent of control: 5.4%
PRKX (human)
  kinase still bound, per cent of control: 41%

## CCN1CCN(C(=O)Cc2ccc(Nc3ncc(F)c(Nc4ccc(C(=O)Nc5ccccc5Cl)cc4)n3)cc2)CC1
AURKA (human)
  kinase still bound, per cent of control: 0.5%
MAPKAPK5 (human)
  kinase still bound, per cent of control: 100%
ADCK4 (human)
  kinase still bound, per cent of control: 0.45%
AURKC (human)
  kinase still bound, per cent of control: 1.2%
[1]
  kinase still bound, per cent of control: 3%
STK17B (human)
  kinase still bound, per cent of control: 13%
CDK7 (human)
  kinase still bound, per cent of control: 22%
EIF2AK1 (human)
  kinase still bound, per cent of control: 66%
STK39 (human)
  kinase still bound, per cent of control: 100%
MAP4K2 (human)
  kinase still bound, per cent of control: 51%
RAF1 (human)
  kinase still bound, per cent of control: 81%
OXSR1 (human)
  kinase still bound, per cent of control: 100%
SRC (human)
  kinase still bound, per cent of control: 18%
CSNK2A2 (human)
  kinase still bound, per cent of control: 7.8%
CDKL5 (human)
  kinase still bound, per cent of control: 100%
MAP4K1 (human)
  kinase still bound, per cent of control: 38%
MYLK (human)
  kinase still bound, per cent of control: 57%
NTRK2 (human)
  kinase still bound, per cent of control: 27%
ACVR2B (human)
  kinase still bound, per cent of control: 38%
ACVRL1 (human)
  kinase still bound, per cent of control: 100%
ERBB3 (human)
  kinase still bound, per cent of control: 45%
NEK4 (human)
  kinase still bound, per cent of control: 63%
EPHA5 (human)
  kinase still bound, per cent of control: 92%
CSNK1D (human)
  kinase still bound, per cent of control: 100%
DCLK3 (human)
  kinase still bound, per cent of control: 80%
CLK4 (human)
  kinase still bound, per cent of control: 28%
PI4KB (human)
  kinase still bound, per cent of control: 100%
[2]
  kinase still bound, per cent of control: 13%
BRAF (human)
  kinase still bound, per cent of control: 70%
CSNK1G3 (human)
  kinase still bound, per cent of control: 100%
[3]
  kinase still bound, per cent of control: 4.6%
CDK4 CCND1 (human)
  kinase still bound, per cent of control: 34%
PRKX (human)
  kinase still bound, per cent of control: 76%

From the kinase profiling compilation of Christmann-Franck et al. (2016)
